Reference: patent US20130281313A1, “PROGNOSTIC AND/OR PREDICTIVE BIOMARKERS AND BIOLOGICAL APPLICATIONS THEREOF” (INSTITUT GUSTAVE ROUSSY, priority 2010, published 2013)

Key:
A549 cells [1] = test: Transcriptome studies (mRNA microarrays); assay type: cell-based, human
Protocol: NSCLC A549 cells were treated with 100 μM CDDP, 75 μM C2-CER or 100 μM CdCl2 for 12 h, or with 50 μM CDDP, C2-CER or CdCl2 for 24 h. Thereafter, cells were collected and lysed for RNA extraction of following established procedures {de La Motte Rouge, 2007}. mRNA expression changes were quantified on G4112A 44 k Whole Human Genome Oligo Microarrays (Agilent Technologies, Santa Clara, USA), as previously reported {Castedo, 2006}. mRNA microarrays underwent standardized post-hybridization processing, image acquisition and analysis (see below) {Castedo, 2006}.
Data from microarray experiments were analyzed with the Rosetta Resolver® System (Rosetta Biosoftware, Seattle, USA). The threshold for statistical significance of probe signals (Intensity) was set at p=10^−5. […] For each mRNA, fold change (FC) was then defined as Intensitysample/Intensitycontrol when Intensitysample>Intensitycontrol, or as—(Intensitycontrol/Intensitysample) when Intensitysample<Intensitycontrol. Ratios were calculated as Intensitysample/Intensitycontrol.

A549 cells [2] = test: Intracellular levels of CDDP in cell lysates; assay type: cell-based, human; conditions: 24 h, 25 μM CDDP alone or with PN and/or GSH, normalized to protein content
Protocol: (E,F) Intracellular levels of CDDP (normalized to protein content) in lysates from untransfected A549 cells (D) or A549 cells transfected with a PDXK-targeting siRNA (E), treated for 24 h with 25 μM CDDP alone or in combination with PN and/or GSH. Mean±SEM (n=6). *=p<0.05 (Studen's t test), as compared to untransfected (D) or siUNR transfected (E) cells treated with CDDP only. n.s.=non significant (Student's t test), as compared to cells treated with the same concentration of GSH (D) or to siPDXK-transfected cells treated with CDDP only (E).

[3] = 12 h, 100 μM CDDP, 75 μM C2-CER or 100 μM CdCl2, vs untreated cells
[4] = 24 h, 50 μM CDDP, C2-CER or CdCl2, vs untreated cells

N.N.[Cl][Pt][Cl] [CDDP, cis-diammineplatinum(II) dichloride]
Fold change, ADAR (NM_001111) transcript (A549 cells [1]; [3]): n.s.
Fold change, ALDH7AT (NM_001182) transcript (A549 cells [1]; [3]): n.s.
Fold change, CD151 (NM_004357) transcript (A549 cells [1]; [3]): n.s.
Fold change, CLIC1 (NM_001288) transcript (A549 cells [1]; [3]): n.s.
Fold change, COMMO9 (NM_014186) transcript (A549 cells [1]; [3]): n.s.
Fold change, COX5B (NM_001802) transcript (A549 cells [1]; [3]): n.s.
Fold change, COX7C (NM_001867) transcript (A549 cells [1]; [3]): n.s.
Fold change, DHRSX (NM_145177) transcript (A549 cells [1]; [3]): −1.94
Fold change, EBP (NM_006579) transcript (A549 cells [1]; [3]): n.s.
Fold change, EEF2 (NM_001901) transcript (A549 cells [1]; [3]): 1.36
Fold change, FDXK (NM_003681) transcript (A549 cells [1]; [3]): −1.77
Fold change, FN3KRP (NM_024619) transcript (A549 cells [1]; [3]): 1.33
Fold change, HDLBP (NM_005336) transcript (A549 cells [1]; [3]): n.s.
Fold change, HGD (NM_000187) transcript (A549 cells [1]; [3]): −1.68
Fold change, IL6R (NM_000565) transcript (A549 cells [1]; [3]): n.s.
Fold change, KHSRP (NM_003685) transcript (A549 cells [1]; [3]): n.s.
Fold change, LOC389727 (NM_372092) transcript (A549 cells [1]; [3]): n.s.
Fold change, MAT2A (NM_005911) transcript (A549 cells [1]; [3]): −1.97
Fold change, MOL1 (NM_021960) transcript (A549 cells [1]; [3]): 2.48
Fold change, MPP6 (NM_016447) transcript (A549 cells [1]; [3]): n.s.
Fold change, OSTCL (NM_145303) transcript (A549 cells [1]; [3]): n.s.
Fold change, P5MC5 (NM_002805) transcript (A549 cells [1]; [3]): n.s.
Fold change, PLK1S1 (NM_018474) transcript (A549 cells [1]; [3]): n.s.
Fold change, PPM1J (NM_005167) transcript (A549 cells [1]; [3]): 1.63
Fold change, RNF26 (NM_032015) transcript (A549 cells [1]; [3]): n.s.
Fold change, RRAD (NM_004185) transcript (A549 cells [1]; [3]): 6.59
Fold change, SEMA3G (NM_000379) transcript (A549 cells [1]; [3]): −1.58
Fold change, SLC22A16AS (NM_007105) transcript (A549 cells [1]; [3]): −1.36
Fold change, SOCS6 (NM_004232) transcript (A549 cells [1]; [3]): −1.28
Fold change, TMED1 (NM_006858) transcript (A549 cells [1]; [3]): 1.35
Fold change, TRIP4 (NM_016213) transcript (A549 cells [1]; [3]): −1.64
Fold change, UBE2L3 (NM_003347) transcript (A549 cells [1]; [3]): −1.76
Fold change, UBE21 (NM_014176) transcript (A549 cells [1]; [3]): n.s.
Fold change, W282 (NM_018029) transcript (A549 cells [1]; [3]): n.s.
Fold change, ADAR (NM_001111) transcript (A549 cells [1]; [4]): n.s.
Fold change, ALDH7AT (NM_001182) transcript (A549 cells [1]; [4]): 1.62
Fold change, CD151 (NM_004357) transcript (A549 cells [1]; [4]): −2.13
Fold change, CLIC1 (NM_001288) transcript (A549 cells [1]; [4]): n.s.
Fold change, COMMO9 (NM_014186) transcript (A549 cells [1]; [4]): n.s.
Fold change, COX5B (NM_001802) transcript (A549 cells [1]; [4]): n.s.
Fold change, COX7C (NM_001867) transcript (A549 cells [1]; [4]): n.s.
Fold change, DHRSX (NM_145177) transcript (A549 cells [1]; [4]): −5.40
Fold change, EBP (NM_006579) transcript (A549 cells [1]; [4]): n.s.
Fold change, EEF2 (NM_001901) transcript (A549 cells [1]; [4]): −1.31
Fold change, FDXK (NM_003681) transcript (A549 cells [1]; [4]): −1.44
Fold change, FN3KRP (NM_024619) transcript (A549 cells [1]; [4]): 1.25
Fold change, HDLBP (NM_005336) transcript (A549 cells [1]; [4]): n.s.
Fold change, HGD (NM_000187) transcript (A549 cells [1]; [4]): −1.50
Fold change, IL6R (NM_000565) transcript (A549 cells [1]; [4]): n.s.
Fold change, KHSRP (NM_003685) transcript (A549 cells [1]; [4]): −2.00
Fold change, LOC389727 (NM_372092) transcript (A549 cells [1]; [4]): n.s.
Fold change, MAT2A (NM_005911) transcript (A549 cells [1]; [4]): n.s.
Fold change, MOL1 (NM_021960) transcript (A549 cells [1]; [4]): n.s.
Fold change, MPP6 (NM_016447) transcript (A549 cells [1]; [4]): n.s.
Fold change, OSTCL (NM_145303) transcript (A549 cells [1]; [4]): n.s.
Fold change, P5MC5 (NM_002805) transcript (A549 cells [1]; [4]): n.s.
Fold change, PLK1S1 (NM_018474) transcript (A549 cells [1]; [4]): n.s.
Fold change, PPM1J (NM_005167) transcript (A549 cells [1]; [4]): n.s.
Fold change, RNF26 (NM_032015) transcript (A549 cells [1]; [4]): n.s.
Fold change, RRAD (NM_004185) transcript (A549 cells [1]; [4]): 3.75
Fold change, SEMA3G (NM_000379) transcript (A549 cells [1]; [4]): n.s.
Fold change, SLC22A16AS (NM_007105) transcript (A549 cells [1]; [4]): −1.34
Fold change, SOCS6 (NM_004232) transcript (A549 cells [1]; [4]): n.s.
Fold change, TMED1 (NM_006858) transcript (A549 cells [1]; [4]): n.s.
Fold change, TRIP4 (NM_016213) transcript (A549 cells [1]; [4]): n.s.
Fold change, UBE2L3 (NM_003347) transcript (A549 cells [1]; [4]): n.s.
Fold change, UBE21 (NM_014176) transcript (A549 cells [1]; [4]): n.s.
Fold change, W282 (NM_018029) transcript (A549 cells [1]; [4]): 1.30

Cc1ncc(CO)c(CO)c1O [PN, pyridoxine]
intracellular accumulation of CDDP (A549 cells [2]): significantly augmented by PN in a PDXK-dependent fashion
